Data: patent US20090252703A1, “Use of alcohol co-solvents to improve pegylation reaction yields” (priority 2006, published 2009)

Experiment: solubility of CGRP peptides in aqueous conjugation buffer
Assay type: physicochemical
Details: aqueous conjugation buffers used for coupling vehicle to the peptide
Excerpt: Co-solvent mediated conjugation of vehicle to CGRP peptide antagonists.

solubility in aqueous buffer medium (in words) | Compound
relatively insoluble | CC(=O)N[C@@H](Cc1c[nH]c2ccccc12)C(=O)N[C@H](C(=O)N[C@H](C(=O)N[C@@H](Cc1cnc[nH]1)C(=O)N[C@@H](CCCNC(N)=O)C(=O)N[C@@H](CC(C)C)C(=O)N[C@@H](C)C(=O)NCC(=O)N[C@@H](CC(C)C)C(=O)N[C@@H](CC(C)C)C(=O)N[C@@H](CO)C(=O)N[C@@H](CCCNC(N)=O)C(=O)N[C@@H](CO)C(=O)NCC(=O)NCC(=O)N[C@H](C(=O)N[C@H](C(=O)N[C@@H](CCCCNC(=N)N)C(=O)N[C@@H](CCCCN)C(=O)N[C@@H](CC(N)=O)C(=O)N[C@@H](Cc1ccccc1)C(=O)N[C@H](C(=O)N1CCC[C@H]1C(=O)N[C@H](C(=O)N[C@@H](CC(=O)O)C(=O)N[C@H](C(=O)NCC(=O)N1C2CCCCC2C[C@H]1C(=O)N[C@@H](Cc1ccccc1)C(=O)N[C@@H](C)C(=O)N[C@@H](Cc1ccccc1)C(N)=O)C(C)C)[C@@H](C)O)C(C)C)C(C)C)C(C)C)[C@@H](C)O)C(C)C (stereo partly drawn) [SEQ ID NO:3]
relatively insoluble | CC(=O)N[C@@H](Cc1c[nH]c2ccccc12)C(=O)N[C@H](C(=O)N[C@H](C(=O)N[C@@H](Cc1cnc[nH]1)C(=O)N[C@@H](CCCNC(N)=O)C(=O)N[C@@H](CC(C)C)C(=O)N[C@@H](C)C(=O)NCC(=O)N[C@@H](CC(C)C)C(=O)N[C@@H](CC(C)C)C(=O)N[C@@H](CO)C(=O)N[C@@H](CCCNC(N)=O)C(=O)N[C@@H](CO)C(=O)NCC(=O)NCC(=O)N[C@H](C(=O)N[C@H](C(=O)N[C@@H](CCCCNC(=N)N)C(=O)N[C@@H](CCCCN)C(=O)N[C@@H](CC(N)=O)C(=O)N[C@@H](Cc1ccccc1)C(=O)N[C@H](C(=O)N1CCC[C@H]1C(=O)N[C@H](C(=O)N[C@@H](CC(=O)O)C(=O)N[C@H](C(=O)NCC(=O)N1CCC[C@H]1C(=O)N[C@@H](Cc1ccccc1)C(=O)N[C@@H](C)C(=O)N[C@@H](Cc1ccccc1)C(N)=O)C(C)C)[C@@H](C)O)C(C)C)C(C)C)C(C)C)[C@@H](C)O)C(C)C [SEQ ID NO:2]
relatively soluble | CC(=O)N[C@@H](Cc1c[nH]c2ccccc12)C(=O)N[C@H](C(=O)N[C@H](C(=O)N[C@@H](Cc1cnc[nH]1)C(=O)N[C@@H](CCCN=C(N)N)C(=O)N[C@@H](CC(C)C)C(=O)N[C@@H](C)C(=O)NCC(=O)N[C@@H](CC(C)C)C(=O)N[C@@H](CC(C)C)C(=O)N[C@@H](CO)C(=O)N[C@@H](CCCN=C(N)N)C(=O)N[C@@H](CO)C(=O)NCC(=O)NCC(=O)N[C@H](C(=O)N[C@H](C(=O)N[C@@H](CCCN=C(N)N)C(=O)N[C@@H](CCCCN)C(=O)N[C@@H](CC(N)=O)C(=O)N[C@@H](Cc1ccccc1)C(=O)N[C@H](C(=O)N1CCC[C@H]1C(=O)N[C@H](C(=O)N[C@@H](CC(=O)O)C(=O)N[C@H](C(=O)NCC(=O)N1CCC[C@H]1C(=O)N[C@@H](Cc1ccccc1)C(=O)N[C@@H](C)C(=O)N[C@@H](Cc1ccccc1)C(N)=O)C(C)C)[C@@H](C)O)C(C)C)C(C)C)C(C)C)[C@@H](C)O)C(C)C [SEQ ID NO:7]
